Results: patent US8569270B2, “Diphenyl sulfide derivatives and medicines containing same as active ingredient” (Kyorin Pharmaceutical Co., Ltd., priority 2009, dated 2013)

Assays:
S1P1 receptor [1] = molecular target: T1, S1P1 receptor (Homo sapiens, UniProt P21453); test: Antagonistic action on the S1P1 receptor using the method of Experiment Example 1; format: cell-based; set-up: expressed in transfected cells
S1P1 receptor [2] = molecular target: T1, S1P1 receptor; test: Intracellular calcium mobilization derivative (agonist) test in human S1P1 receptor-expression CHO cells; format: cell-based; set-up: expressed in transfected cells; host or cells: CHO cells (Geneticin-selected); conditions: agonist mode, read-out: EC50 value, intracellular calcium mobilization derivative action
Description: Intracellular Calcium Mobilization Derivative Test of Test Compound Against Human S1P1 Receptor-Expression Cell
Human S1P receptor-expression CHO cells (hS1P1 receptor-expression CHO cells, hS1P3 receptor-expression CHO cells, and hS1P4 receptor-expression CHO cells) subcultured in a Ham's F-12 culture medium containing 10% fetal bovine serum, and 200 μg/mL of Geneticin were disseminated into a 96-well black clear bottom plate (coaster) so that 4×10^4 cells/well of the human S1P receptor-expression CHO cells were disseminated. The human S1P3 receptor-expression CHO cells were then cultivated for one night at 37° C. under 5% CO2. A Calcium Screening Kit reagent (Dojindo) was added as a Ca^2+ binding fluorescence indicator, and then the cultures were cultivated for 60 minutes at 37° C. under 5% CO2. After cultivation, the fluoroesence intensity was measured at an excitation wavelength of 485 nm and a detection wavelength of 525 nm using a microplate spectrophotofluorometer (FLEX Station) (Molecular Device Co., Ltd.). S1P prepared in a culture medium so that the concentration would be 10 times that of the final concentration, or a test compound (final DMSO concentration 0.1%) was added 18 seconds after the start of the fluorescence measurement, and the fluorescence intensity was continuously measured every 1.5 seconds until 100 seconds after the addition. […]

Human S1P3 receptor = molecular target: T2, Human S1P3 receptor (Homo sapiens, UniProt Q99500); test: Suppression of S1P-induced cellular calcium mobilization in human S1P3 receptor-expression CHO cells (Schild plot); format: cell-based; conditions: Schild plot of S1P EC50 shift; test compound 125 nM, 1.25 μM, 12.5 μM; hS1P3 CHO cells; read-out: S1P3 dissociation constant Kd value
T2 construct: expressed in transfected cells; host or cells: CHO cells (Geneticin-selected)
Description: Suppression Effect of Test Compound Against Cellular Calcium Mobilization of Human S1P3 Receptor-Expression Cell by S1P (Sphingosine 1-Phosphoric Acid)
Human S1P3 receptor-expression CHO cells were subcultured in a Ham's F-12 culture medium containing 10% fetal bovine serum, and 300 μg/mL of Geneticin. The human S1P3 receptor-expression CHO cells were subjected to 0.25% trypsinization, then recovered from the dish, and floated in a Ham's F-12 culture medium containing 10% fetal bovine serum, and 300 μg/mL of Geneticin. After that, the human S1P3 receptor-expression CHO cells were disseminated into a 96-well black clear bottom plate (BD Falcon Biocoat) so that 7×10^4/100 μL/well of the human S1P3 receptor-expression CHO cells were disseminated. And then, the human S1P3 receptor-expression CHO cells were cultivated for one night at 37° C. under 5% CO2. The next day, the wells were washed 3 times with 100 μL of PBS containing 0.1% fatty acid-free bovine serum albumin (BSA). The culture medium was exchanged with a Ham's F-12 culture medium containing 0.1% BSA, and then starved of serum for 6 hours in an CO2 incubator at 37° C.
The culture medium was thrown away after the 6 hours. Then, 50 μL/well of a Fluo3 loading buffer was added, and the cultures were cultivated for further 1 hour. The Fluo3 loading buffer was prepared as follows. First, equal amounts of Fluo3-AM (Dojindo) and pluronic F-127 (20% DMSO solution, invitrogen) were mixed. Next, the mixture of Fluo3-AM and pluronic F-127 was added to a Hanks-HEPES buffer (balanced salt solution containing 20 mM HEPES (pH, 7.4), 0.1% BSA (fatty acid-free), and 2.5 mM probenecid) to form a Fluo3 loading buffer having a final Fluo3-AM concentration of 4
After incubating for 1 hour, the cultures were washed 3 times with 100 μL of the Hanks-HEPES buffer. Then, 100 μL of the same buffer in which a test compound (125 nM, 1.25 μM, 12.5 μM) or DMSO had been dissolved was added to the cultures, and then incubated for 30 minutes at 37° C. in a microplate spectrophotofluorometer (FLEX Station) (Molecular Device Co., Ltd.). Then, 25 μL of S1P prepared at 5 times the concentration of the final concentration by serial dilution (final concentration of 0.1 nM, 1 nM, 10 nM, 100 nM, and 1 μM) was added, and the fluorescence based on the Fluo3 due to calcium mobilization was detected and measured at an excitation wavelength of 485 nm and a detection wavelength of 525 nm using the same apparatus. Based on the measurement data, the increase in fluorescence was calculated by subtracting the minimum fluorescence intensity from the maximum fluorescence intensity. The measured increase in fluorescence was used to perform a curve approximation of the relationship between the S1P concentration and the increase in fluorescence using PRISM 4 software (GraphPad). Based on the results, the EC50 value of the compound-untreated and the EC50 value of the compound-treated at each concentration were calculated. Schild Plot analysis was performed based on these values to determine dissociation constant Kd value. In Table 1, 1,000 nmol/L>Kd value≧100 nmol/L is indicated as “+,” 100 nmol/L>Kd value≧10 nmol/L is indicated as “++,” 10 nmol/L>Kd value≧1 nmol/L is indicated as “+++,” and 1 nmol/L>Kd value is indicated as “++++.”

[3] = system: Cecal ligation and puncture sepsis model; test: Cecal ligation and puncture sepsis model, survival; format: in vivo, Long-Evans rats; conditions: 0.1 mg/kg/hr continuous i.v. from 2 hours after CLP, rat
Description: This model is widely used as a model for polymicrobial abdominal sepsis caused by leakage of intestinal bacteria. The experiment was carried out with reference to the method described in Non-Patent Literature 9 (D. Rittirsch et al., Nature Protocols, 4, 31 (2009)). Long-Evans rats were used (Nihon SLC, male 9 weeks). The abdominal portion of the rats was cut open under isoflurane anesthesia, and the cecum was removed. The cecum was ligated with silk thread, and 3 holes were opened in the tip portion of the cecum using an 18 G syringe needle. After the treatment, the cecum was returned to the body, and the wound was sutured. The rats were then returned to their cages, and observed for 4 days to determine the survival rate. The test compound (0.1 mg/kg/hr) was continuously administered from a cannula stuck in the femoral vein from 2 hours after the CLP treatment.

IL-1β production = test: LPS induced sepsis model, IL-1β in tissue by ELISA; format: in vivo, C57BL/6J mouse; conditions: 10 mg/kg i.v. twice (15 min before and 2 h after LPS), 18 h after LPS
Description: The experiment was carried out with reference to the method described in Non-Patent Literature 5 (F. Nissen et al., Nature, 452, 654 (2008)). A solution of 1 mg/ml LPS (lipopolysaccharide) in physiological saline was intraperitoneally administered (10 ml/kg) to a C57BL/6J mouse (Charles River, male, 7 to 8 weeks). The test compound in an amount of 10 mg/kg was intravenously administered twice, 15 minutes before LPS administration and 2 hours after LPS administration. The mouse was dissected 18 hours after LPS administration, and the mesenteric lymph nodes and lungs were excised. The mesenteric lymph nodes were dissolved in 200 μl and the lungs in 1 ml of a dissolving buffer (30 mM Tris (pH7.4), 150 mM NaCl, 0.1% TritonX-100, 2 mM CaCl2, and 2 mM MgCl2). Non-dissolved matter was removed by centrifugal separation. The IL-1β in the tissue solutions was measured using an IL-1β ELISA Kit (Thermo Co., Ltd.). In Table 2, compounds having a suppression rate of 50% or more are indicated as “+++,” compounds having a suppression rate of 50%>suppression rate≧30% are indicated as “++,” and compounds having a suppression rate of 30%>suppression rate 20% are indicated as “+.”
The suppression rate was calculated using the following calculation equation. a=(1−X/Y)×100 [Equation 1] X: IL-1β PRODUCTION AMOUNT WHEN, 10 mg/kg OF TEST COMPOUND WAS ADMINISTERED TO RESPECTIVE TISSUE Y: IL-1β PRODUCTION AMOUNT WHEN TEST COMPOUND WAS NOT ADMINISTERED TO RESPECTIVE TISSUE a: SUPPRESSION RATE (%)

T2 sequence (Q99500 whole entry): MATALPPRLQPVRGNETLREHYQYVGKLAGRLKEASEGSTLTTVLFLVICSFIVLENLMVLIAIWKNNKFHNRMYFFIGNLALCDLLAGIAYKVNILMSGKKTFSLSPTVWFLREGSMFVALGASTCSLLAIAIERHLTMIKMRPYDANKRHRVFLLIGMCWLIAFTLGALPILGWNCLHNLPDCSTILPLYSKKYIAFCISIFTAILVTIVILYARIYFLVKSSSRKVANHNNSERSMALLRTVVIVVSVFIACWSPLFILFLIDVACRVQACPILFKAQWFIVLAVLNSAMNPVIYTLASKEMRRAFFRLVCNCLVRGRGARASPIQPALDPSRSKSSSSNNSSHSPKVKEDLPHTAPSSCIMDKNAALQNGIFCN
T1 sequence (P21453 whole entry): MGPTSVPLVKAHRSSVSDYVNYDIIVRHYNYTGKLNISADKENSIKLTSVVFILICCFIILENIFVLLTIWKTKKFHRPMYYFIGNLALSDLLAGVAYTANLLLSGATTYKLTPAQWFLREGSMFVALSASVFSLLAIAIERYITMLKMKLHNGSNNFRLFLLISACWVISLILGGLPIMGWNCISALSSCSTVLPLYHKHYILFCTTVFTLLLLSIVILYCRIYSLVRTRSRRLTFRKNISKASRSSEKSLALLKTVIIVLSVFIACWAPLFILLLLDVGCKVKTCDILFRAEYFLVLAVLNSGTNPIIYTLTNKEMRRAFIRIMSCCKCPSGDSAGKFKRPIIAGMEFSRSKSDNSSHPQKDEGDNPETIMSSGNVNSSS

Kd (S1P1 receptor [1]) | EC50 (S1P1 receptor [2]) | Kd (Human S1P3 receptor) | Structure (SMILES) | survival rate after 4 days ([3]; medium group 40%) | survival curve compared with the medium administration group ([3]; observed 4 days) | Suppression Rate for Lung (IL-1β production; mouse lung) | Suppression Rate for Mesenteric Lymph Nodes (IL-1β production; mouse mesenteric lymph nodes)
> 100 µM | > 10 µM | 0.1 to 1 µM | C[C@](N)(CCc1ccc(Sc2cc(C#N)ccc2O)cc1Cl)COP(=O)(O)O [Example 15, (S)-2-amino-4-[2-chloro-4-(5-cyano-2-hydroxyphenylthio)phenyl]-2-methylbutylphosphoric acid monoester] |  |  |  | 
> 100 µM | > 10 µM | < 0.001 µM | CCC[C@](N)(CCc1ccc(Sc2cc(C(F)(F)F)ccc2O)cc1Cl)COP(=O)(O)O [Example 13] |  |  | +++ (suppression rate of 50% or more) | +++ (suppression rate of 50% or more)

Structure (SMILES) | Kd (S1P1 receptor [1]) | EC50 (S1P1 receptor [2]) | Kd (Human S1P3 receptor) | survival rate after 4 days ([3]; medium group 40%) | survival curve compared with the medium administration group ([3]; observed 4 days) | Suppression Rate for Lung (IL-1β production; mouse lung) | Suppression Rate for Mesenteric Lymph Nodes (IL-1β production; mouse mesenteric lymph nodes)
CCC[C@](N)(CCc1ccc(Sc2cc(-c3ccccc3)ccc2O)cc1Cl)COP(=O)(O)O [Example 22] |  |  | < 0.001 µM | 70% | survival curve that had shifted to the right |  | 
